As a reminder, the Kd is the concentration at which binding is half-saturated. The ED50 is the dose at which the effect has come halfway, by size or by number of responders. What is called MIC is the lowest concentration that inhibits growth of the organism. Higher therefore signals a less susceptible organism.

Details of test [1]: method as in our previous studies. The note with it: ref our previous studies, cited from earlier work. The text has this:
(§1) Lysocin E (1, Fig. 1a) was isolated from Lysobacter sp. as a new antibiotic and structurally determined to be a 37-membered depsipeptide (molecular weight = 1618 Da) with an N-methylated amide and ester linkages. The macrocyclic core of 12 residues contains four different non-proteinogenic D-amino acids (D-Arg-2/7, N-Me-D-Phe-5, D-Gln-9, D-Trp-10) and is appended with (R)-3-hydroxy-5-methylhexanamide.

The subject of the next test is MRSA. Set-up: method as in PMID 25485686. The note with it: cited from earlier work.
Description: as §1

Test [2] relates to S. aureus. Set-up: method as in PMID 25485686. Conditions: S. aureus-infected mice; cited from earlier work. The text has this:
Lysocin E (1, Fig. 1a) was isolated from Lysobacter sp. as a new antibiotic and structurally determined to be a 37-membered depsipeptide (molecular weight = 1618 Da) with an N-methylated amide and ester linkages. The macrocyclic core of 12 residues contains four different non-proteinogenic D-amino acids (D-Arg-2/7, N-Me-D-Phe-5, D-Gln-9, D-Trp-10) and is appended with (R)-3-hydroxy-5-methylhexanamide. […] Screening of the additives ind ...

In test [3] the test system is Staphylococcus aureus Smith ATCC 13709. The test is classed as cell-based. As to the method: (§2) Antimicrobial activity assay of bead-derived peptides. […]
(§3) plate was added DMSO (1 µL/well). […]
(§4) precipitation of the grown cells was examined.
(§5) Evaluation of antimicrobial spectra of peptides. The MIC assay was performed according to the Clinical and Laboratory Standards Institute protocols. The antimicrobial activities of the peptides were measured […]
(§6) Soy Broth or Müller Hinton Broth agar plates. Bacterial inoculum was prepared by direct suspension of the […]
(§7) and incubated at 37 °C for 18 h. […]
(§8) inhibited growth of bacteria.

For test [4], the system named is S. aureus. It counts as cell-based, Staphylococcus aureus. The note with it: 18 h. As to the method: as §2, §3, §4, §5, §6, §7, §8
For test [5], the system named is Staphylococcus aureus RN4220. The protocol:
×105 colony forming units (CFU) , 21 g/L Müller Hinton Broth (Difco), 5 0 mg/L Ca2+ (adjusted with CaCl2• 2H2O), and 25 mg/L Mg 2+ (adjusted with MgCl 2•6H2O)]. […]
Evaluation of antimicrobial spectra of peptides. The MIC assay was performed according to the Clinical and Laboratory Standards Institute protocols. The antimicrobial activities of the peptides were measured using the broth microdilution method.1 Serial dilutions of peptides were prepared in cation adjusted Müller Hinton Broth. Each dilution (100 µL) was dispensed to each well of the round-bottom plate to obtain final concentrations ranging from 64 µg/m L to 0.0075 µg/m L. Bacteria were grown at 37 °C overnight on Tryptic Soy Broth or Müller Hinton Broth agar plates. Bacterial inoculum was prepared by direct suspension of the colonies in 0.9% saline, and adjusted to obtain OD 625 0.08–0.13 using a spectrophotometer UV -1280 (Shimadzu). The resultant suspension was diluted with cation adjusted Müller Hinton Broth (1/20). The resultant mixture (10 µL) was inoculated to each well of the plates (approximately 5 ×10^4 CFU/well ), mixed, and incubated at 37 °C for 18 h. The MIC value was determined as the minimum concentration that inhibited growth of bacteria. To evaluate the antimicrobial activities of peptides in the presence of serum, 10% bovine calf serum in cation adjusted Müller Hinton Broth was used.

Test [6] has as its system Listeria monocytogenes 10403S. It counts as cell-based. The note with it: 18 h. The protocol:
as §2, §3, §4, §5, §6, §7, §8

Another test has as its system Bacillus cereus JCM20037. It counts as cell-based. Conditions: JCM20037, 18 h. The protocol:
as §2, §3, §4, §5, §6, §7, §8

The test system of test [7] is Bacillus subtilis JCM2499. It counts as cell-based. The note with it: JCM2499, 18 h. As to the method:
as §2, §3, §4, §5, §6, §7, §8

Values after ≈ are worked out from the molar mass of the structure shown. Like-named read-outs stand apart in the source and are kept apart here. Where a SMILES comes first, the peptide text is derived from it. Bridges are numbered along the chain shown (N, C = ends). [ ]: non-standard residue; d: D form. The star is where a group is joined. Hexanoyl(3R-OH,5-Me) = CC(C)C[C@@H](O)CC(=O)*; dNMeF = CN[C@H](Cc1ccccc1)C(=O)O

Regarding `CC[C@H](C)[C@@H]1NC(=O)[C@@H](Cc2c[nH]c3ccccc23)NC(=O)[C@@H](CCC(N)=O)NC(=O)[C@H](CCC(=O)O)NC(=O)[C@@H](CCCNC(=N)N)NC(=O)[C@H](CC(C)C)NC(=O)[C@@H](Cc2ccccc2)N(C)C(=O)CNC(=O)[C@H](CO)NC(=O)[C@@H](CCCNC(=N)N)NC(=O)[C@@H](NC(=O)C[C@H](O)CC(C)C)[C@@H](C)OC(=O)[C@H]([C@@H](C)O)NC1=O` [Peptide 1, Lysocin E] ({Hexanoyl(3R-OH,5-Me)}-T[dR]SG[dNMeF]L[dR]E[dQ][dW]IT; ester 1-C), the Kd in [1] (1:1 complex with MK-4, in vitro) is 4.5 µM. Also, the “affinity toward ubiquinone-10” value in [1] (in vitro) is “no affinity”. The “minimum inhibitory concentration (MIC) against MRSA” value with MRSA is 4 mg/L (≈ 2.47 µM). In addition, the ED50 in the test on S. aureus [2] was 0.5 mg/kg. Besides, the “decrease of MIC by adding 10% BCS” value in test [3] is 64 fold. Moreover, the MIC is 0.0625 mg/L (≈ 0.0386 µM) in [3] (10% BCS (+)); 2.0 mg/L (≈ 1.24 µM) in test [3] (ATCC 13709, 18 h); 0.125 mg/L (≈ 0.0773 µM) in test [5] (10% BCS (+)); 4.0 mg/L (≈ 2.47 µM) in test [5] (BCS free). The “original MIC value against S. aureus” value with S. aureus [4] was in the range of 2 to 4 mg/L.

`CC(C)C[C@@H](O)CC(=O)N[C@@H]1C(=O)N[C@H](CCCNC(=N)N)C(=O)N[C@@H](C)C(=O)NCC(=O)N(C)[C@H](Cc2ccccc2)C(=O)N[C@@H](CC(C)C)C(=O)N[C@H](CCCNC(=N)N)C(=O)N[C@@H](CCC(=O)O)C(=O)N[C@H](Cc2ccc(O)cc2)C(=O)N[C@H](Cc2c[nH]c3ccccc23)C(=O)N[C@@H](Cc2ccc(O)cc2)C(=O)N[C@@H]([C@@H](C)O)C(=O)O[C@@H]1C` [Peptide A15] ({Hexanoyl(3R-OH,5-Me)}-T[dR]AG[dNMeF]L[dR]E[dY][dW]YT; ester 1-C) returned an MIC in test [6] of 64 mg/L (≈ 37.9 µM).

Regarding `CC[C@H](C)[C@@H]1NC(=O)[C@@H](Cc2c[nH]c3ccccc23)NC(=O)[C@@H](Cc2ccc(O)cc2)NC(=O)[C@H](CCC(=O)O)NC(=O)[C@@H](CCCNC(=N)N)NC(=O)[C@H](CC(C)C)NC(=O)[C@@H](Cc2ccccc2)N(C)C(=O)CNC(=O)[C@H](CC(=O)O)NC(=O)[C@@H](CCCNC(=N)N)NC(=O)[C@@H](NC(=O)C[C@H](O)CC(C)C)[C@@H](C)OC(=O)[C@H]([C@@H](C)O)NC1=O` [Peptide A17] ({Hexanoyl(3R-OH,5-Me)}-T[dR]DG[dNMeF]L[dR]E[dY][dW]IT; ester 1-C), the MIC (in the test on Bacillus cereus JCM20037; in test [7]) was 16 mg/L (≈ 9.52 µM) throughout.

Source of the values: paper PMC6611794, “Development of a high-throughput strategy for discovery of potent analogues of antibiotic lysocin E” (Nature Communications, 2019).
